Entries after “also recorded” stand apart in the source; their conditions may differ. Structures can show the parent of a compound that is named as a salt. Where two headings read alike, the source gives them in different places.
Tests used:
[1] = mice; cited from earlier work
[2] = rats; cited from earlier work
AD pathology = conditions: cited from earlier work
[3] = tested on: GSK3β (Ser9) phosphorylation; test: Inhibitory GSK3β (Ser9) phosphorylation by Western blot in CHO cells; assay type: cell-based, Chinese Hamster; conditions: for maximal increase of pGSK3β: 18 h, vs no treatment; for concentration at which increase of pGSK3β starts: 18 h treatment, WB densitometry
Procedure: (§1) Human neuroblastoma SH-SY5Y cells (ATCC, Manassas, Va.) were cultured in DMEM/Nutrient Mixture F-12 (DMEM/F-12), 10% fetal bovine serum (FBS) and 15 mM HEPES. Chinese Hamster Ovary cells (CHO, Millipore Sigma), human embryonic kidney 293 cells expressing wild-type tau (HEK293/tau cells, ATCC) and mouse BV2 microglial cells (Creative Bioarray, Shirley, N.Y.) were cultured in DMEM with 10% FBS. SH-SY5Y cells and CHO cells were cultured in 24-well plates at a density of 2.5×10^5 cells/well. HEK293/tau cells were cultured in 24-well plates at a density of 3.5×10^5 cells/well, after being treated with Tetracycline (1:1000) for about 24 h to create high and stable cells lines (24).
(§2) Cells were treated with LiCS or NaCS at 0, 5, 10, 20, 40, 60 or 90 μM or LiCl at 0, 0.06, 0.15, 0.3, 0.6, 1.2 and 2.5 mM for 18 hours, followed by washing with ice-cold PBS 3×, lysis with cell lysis buffer and centrifugation at 1.4×10^4 rpm for 20 minutes. The supernatants were then used for analysis of GSK3β (Ser) and tau (Thr^231) phosphorylation by Western Blot (WB) and WB bands were calculated by Image J software (Java 1.6.0_20, NIH, USA).

[4] = tested on: GSK3β (Ser9) phosphorylation; test: Inhibitory GSK3β (Ser9) phosphorylation by Western blot in SH-SY5Y cells; assay type: cell-based, Human; conditions: for maximal increase of pGSK3β: 18 h; for concentration at which increase of pGSK3β starts: 18 h treatment, WB densitometry
Procedure: as §1, §2

[5] = tested on: GSK3β (Ser9) phosphorylation; test: Inhibitory GSK3β (Ser9) phosphorylation and total GSK3β by Western blot, statements covering both CHO and SH-SY5Y cells; assay type: cell-based; conditions: for effect on total GSK3β levels: any dose; for concentration at which increase of pGSK3β starts / maximal increase of pGSK3β: both CHO and SH-SY5Y cells (summary)
Procedure: as §1, §2

[6] = tested on: tau (Thr231) phosphorylation; test: Tau (Thr231) phosphorylation by Western blot in HEK293/tau cells; assay type: cell-based, human; conditions: for effect on total tau levels: any dose
Procedure: as §1, §2

LPS-induced TNFα = assay type: cell-based, mouse; conditions: for concentration at which decrease of LPS-induced TNFα starts: LPS 100 ng/ml, 3 h
[7] = Lithium levels in blood plasma, brain, kidney and liver of mice after oral gavage (lithium ELISA); assay type: in vivo, C57BL/6J male mice
Procedure: C57BL/6J male mice at 4 months of age were treated with LiCl or LiCS at 0.04 mmol lithium/mouse p.o by gavage, followed by determination of lithium levels in blood plasma, brain, kidney and liver at 0.5, 1, 2, 3, 5 and 24 h after gavage by ELISA (N=2 mice/time point).
At 0.5, 1, 2, 3, 5 and 24 h after treating mice with LiCl or LiCS p.o. by gavage, mice were anesthetized with isoflourane (50 mg/kg) (Sigma-Aldrich), euthanized by bilateral thoracotomy, and blood was collected. Brain, kidney, and liver were harvested, homogenized in 400 μL ddH2O with Minilys tissue homogenizer (Bertin Technologies, Montigny-le-Bretonneux, France), and centrifuged for 30 min. Lithium levels in plasma and supematants from brain, kidney, and liver homogenates were determined by ELISA (Biovision, Milpitas, Calif.) following the manufacturer's instructions. Plasma, brain, kidney and liver homogenates from control mice were used to generate standard curve.

autistic features = conditions: 2 mmol/kg i.p./day, Sprague-Dawley rats; cited from earlier work
[8] = all liposomes tested; cited from earlier work
[9] = rats; cited from earlier work; remark: listed apart in the source
[10] = long term oral administration, Tg2576 and 3XTg AD mice
[11] = 0.04 mmol lithium/mouse p.o., 0.5 and 5 h after gavage
[12] = NaCS at any dose between 5 and 90 μM, sulfate

For `O=C(O)[C@@H]1CCCN1.O=C([O-])c1ccccc1O.[Li+]` [LISPRO], the “brain lithium levels compared with lithium carbonate or lithium salicylate” value [1] is given as “significantly higher brain lithium levels”, the “plasma lithium levels compared with lithium carbonate or lithium salicylate” value [1] is given as “more steady plasma lithium levels” and the “brain lithium levels compared with lithium carbonate or lithium salicylate” value [2] is given as “significantly higher brain lithium levels”. For the same compound, the “plasma lithium levels compared with lithium carbonate or lithium salicylate” value [2] was “more steady plasma lithium levels”, the AD-related behavioral impairment (AD pathology; AD mouse models) was “reduced AD-related behavioral impairment” and the “AD pathology (β-amyloid plaques, tau hyperphosphorylation, neuroinflammation, neuronal and synaptic protein loss, GSK3β activity)” value (AD pathology; [10]) was “reduced AD pathology”. For the same compound, the renal inflammation (AD pathology; [10]) was “without eliciting renal inflammation”.

For `CC(C)CCC[C@@H](C)[C@H]1CC[C@H]2[C@@H]3CC=C4C[C@@H](OS(=O)(=O)[O-])CC[C@]4(C)[C@H]3CC[C@]12C.[Li+]` [LiCS, lithium cholesterol sulfate], the “maximal increase of pGSK3β” value ([3]; LiCS at 60 μM) was 92%, the “concentration at which increase of pGSK3β starts” value (from here on “concentration at which increase”) [3] was 10 μM and the “maximal increase of pGSK3β” value ([4]; LiCS at 90 μM) was 90%. The “concentration at which increase” value [4] was 10 μM, the “extent of pGSK3β increase at 60 μM” value [5] was “maximally” and the “concentration levels at which pGSK3β increased” value ([5]; CHO and SH-SY5Y cells) was “low micromolar levels”. For the same compound, the “potency relative to LiCl in increasing inhibitory GSK3β (Ser9) phosphorylation” value ([5]; CHO and SH-SY5Y cells) was 21-28 fold, the “effect on total GSK3β levels” value ([5]; 18 h, CHO and SH-SY5Y cells, sulfate) was “without altering; also recorded: neither LiCS, LiCl nor NaCS altered” and the “potency compared with LiCl in increasing inhibitory GSK3β (Ser9) phosphorylation” value ([5]; both CHO and SH-SY5Y cells) was “more potent than LiCl”. The “concentration at which increase” value [5] was 10 μM, the “maximal increase of pGSK3β” value ([5]; LiCS at 60 μM) was “approximately 100%” and the “concentration levels at which tau (Thr231) phosphorylation is reduced” value ([6]; HEK293/tau cells) was “at micromolar levels”. The “concentration at which decrease of ptau (Thr231) starts” value ([6]; HEK293/tau cells, 18 h) was 10 µM, the “maximal decrease of ptau (Thr231)” value ([6]; HEK293/tau cells, 18 h, LiCS at 40 μM) was 63% and the “effect on total tau levels” value ([6]; 18 h, listed as UCS, sulfate) was “without altering”. For the same compound, the “effect on total tau levels” value ([6]; 18 h, sulfate) was “neither LiCS, NaCS nor LiCl at any dose altered”, the “effectiveness compared with LiCl in reducing microglial LPS-induced TNFα production” value (LPS-induced TNFα; BV2 cells) was “more effective than LiCl” and the “potency relative to LiCl for reducing LPS-induced TNFα production” value (LPS-induced TNFα; BV2 cells) was “approximately 250 fold”. For the same compound, the “concentration at which decrease of LPS-induced TNFα starts” value (LPS-induced TNFα; BV2 cells) was 20 µM, the “lithium levels in the liver” value [7, 11] was “failed to increase at any time” and the “lithium levels in the kidney” value ([7]; 0.04 mmol lithium/mouse p.o., 0.5 and 5 h after gavage, listed as UCS, sulfate) was “LiCl but not UCS treatment markedly increases”. The “lithium levels in the kidney” value ([7]; 0.04 mmol lithium/mouse p.o., 0.5 and 5 h after gavage, sulfate) was “failed to increase at any time”, the “lithium blood levels compared with LiCl oral treatment” value ([7]; oral treatment, mice) was “more stable and last longer” and the “crossing of the blood-brain barrier” value ([7]; oral treatment, mice, compared with LiCl) was “more readily crosses the blood-brain barrier”.

For `[Cl-].[Li+]` [LiCl, lithium chloride], the “maximal increase of pGSK3β” value ([3]; LiCl at 1.25 mM) was 91%, the “concentration at which increase” value [3] was 160 μM and the “maximal increase of pGSK3β” value ([4]; LiCl at 2.5 mM) was 119%. The “concentration at which increase” value [4] was 60 μM, the “extent of pGSK3β increase at 60 μM” value [5] was “minimally” and the “concentration levels at which pGSK3β increased” value ([5]; CHO and SH-SY5Y cells) was “high micromolar and low millimoloar levels”. For the same compound, the “effect on total GSK3β levels” value ([5]; 18 h, CHO and SH-SY5Y cells) was “without altering; also recorded: neither LiCS, LiCl nor NaCS altered”, the “concentration at which increase” value [5] was 60 μM and the “maximal increase of pGSK3β” value ([5]; LiCl at 1.25 mM) was “approximately 100%”. For the same compound, the “effect on ptau (Thr231)” value ([6]; LiCl at any dose between 60 μM and 1.25 mM, 18 h) was “not altered; also recorded: neither LiCl at any dose between 60 μM and 1.25 mM nor NaCS at any dose between 5 and 60 μM altered ptau; also recorded: ineffective even at millimolar levels; also recorded: failed to alter”, the “effect on total tau levels” value ([6]; 18 h) was “neither LiCS, NaCS nor LiCl at any dose altered” and the “concentration at which decrease of LPS-induced TNFα starts” value (LPS-induced TNFα; BV2 cells) was 5000 µM. For the same compound, the “lithium levels in the brain” value [7, 11] was “increased at 5 h”, the “lithium levels in the kidney” value [7, 11] was “increased at 0.5 and 5 h; also recorded: markedly increases” and the “lithium levels in the liver” value [7, 11] was “failed to increase at any time”. The “autistic features (social interaction deficit, repetitive self-grooming, anxiety, depression)” value (autistic features) was “reversed autistic features”.

For `CC(C)CCC[C@@H](C)[C@H]1CC[C@H]2[C@@H]3CC=C4C[C@@H](OS(=O)(=O)[O-])CC[C@]4(C)[C@H]3CC[C@]12C.[Na+]` [NaCS, sodium cholesterol sulfate], the “effect on pGSK3β” value ([5]; NaCS at 5-90 μM, 18 h, CHO and SH-SY5Y cells, sulfate) was “did not alter; also recorded: failed to alter”, the “effect on total GSK3β levels” value ([5]; 18 h, CHO and SH-SY5Y cells) was “neither LiCS, LiCl nor NaCS altered” and the “effect on ptau (Thr231)” value ([6]; NaCS at any dose between 5 and 60 μM, 18 h, sulfate) was “neither LiCl at any dose between 60 μM and 1.25 mM nor NaCS at any dose between 5 and 60 μM altered ptau”. The “effect on ptau (Thr231)” value [6, 12] was “did not alter; also recorded: failed to alter”, the “effect on total tau levels” value ([6]; 18 h, sulfate) was “neither LiCS, NaCS nor LiCl at any dose altered” and the “effect on LPS-induced TNFα level” value (LPS-induced TNFα; NaCS at any concentration between 20 and 80 μM) was “not altered”. For the same compound, the “effect on LPS-induced TNFα level” value (LPS-induced TNFα; [12]) was “did not alter; also recorded: failed to alter”.

In the case of `CC(C)CCC[C@@H](C)[C@H]1CC[C@H]2[C@@H]3CC=C4C[C@@H](OS(=O)(=O)O)CC[C@]4(C)[C@H]3CC[C@]12C` [cholesterol sulfate], the “rate of intermembrane exchange relative to cholesterol” value [8] is listed as “approximately 10 fold”.

In the case of `O=C([O-])c1ccccc1O.[Li+]` [lithium salicylate], the “plasma lithium levels and elimination compared with lithium lactate” value [9] is given as “longer elevated plasma lithium levels with a slower elimination process”.
